Values quoted from earlier work as cited in PubChem BioAssay AID1259409 (Chemical Carcinogenesis Research Information System (CCRIS), 2018).
Where “and” joins values, the source holds several entries; their conditions need not be identical. Identical values can stand only once.

Test system: rodent chemically induced tumor inhibition, incidence and multiplicity
Test: CCRIS tumor inhibitor studies
Conditions: Route [Inhibitor]: ORAL

For `[Se]`, the “tumour outcome (control, treated, inhibition, significance)” value (Carcinogen: 1,2-DIMETHYLHYDRAZINE, 540-73-8, Dose [Inhibitor]: 0, 0.2, 5 PPM IN DIET BEGINNING 1 D PRIOR TO CARCINOGEN TREATMENT AND CONTINUING FOR DURATION OF STUDY (STUDY DURATION:, Dose [Inhibitor]: 0, 0.2, 5 PPM IN DIET BEGINNING 1 D PRIOR TO CARCINOGEN TREATMENT AND CONTINUING FOR DURATION OF STUDY (STUDY DURATION:, Species: RAT, Strain/Sex: SPRAGUE-DAWLEY/MALE, Target Tissue: Type of Lesion: DISTAL COLON: ADENOCARCINOMA, Dose [Carcinogen]: 20 MG/KG 1/WK FOR 20 WK, Promoter: NONE USED) is listed as 94%, 81%, 14%, not significant, the “tumour outcome (control, treated, inhibition, significance)” value (Carcinogen: 3,2'-DIMETHYL-4-AMINOBIPHENYL, 13394-86-0, Dose [Inhibitor]: 0, 2 PPM IN BASAL DIET BEGINNING POST CARCINOGEN TREATMENT AND CONTINUING FOR 40 WK (STUDY DURATION: 60 WK), Species: RAT, Strain/Sex: F344/MALE, Target Tissue: Type of Lesion: LARGE INTESTINE: ADENOMA AND CARCINOMA, Dose [Carcinogen]: 50 MG/KG 1/2 WK FOR 20 WK TO RATS MAINTAINED ON ETHINYL ESTRADIOL CONTAINING DIET (0.75 PPM) FOR 1 WK CYCLED WITH ETHINY, Promoter: ETHINYL ESTRADIOL, 57-63-6) is listed as 3/10 (30%), 0/11 (0%), 100%, not significant and the “tumour outcome (control, treated, inhibition, significance)” value (Carcinogen: 3,2'-DIMETHYL-4-AMINOBIPHENYL, 13394-86-0, Dose [Inhibitor]: 0, 2 PPM IN BASAL DIET BEGINNING POST CARCINOGEN TREATMENT AND CONTINUING FOR 40 WK (STUDY DURATION: 60 WK), Species: RAT, Strain/Sex: F344/MALE, Target Tissue: Type of Lesion: PANCREAS: ACINAR CELL NODULE, Dose [Carcinogen]: 50 MG/KG 1/2 WK FOR 20 WK TO RATS MAINTAINED ON ETHINYL ESTRADIOL CONTAINING DIET (0.75 PPM) FOR 1 WK CYCLED WITH ETHINY, Promoter: ETHINYL ESTRADIOL, 57-63-6) is listed as 4/10 (40%), 4/11 (36%), 10%, not significant. The “tumour outcome (control, treated, inhibition, significance)” value (Carcinogen: 3,2'-DIMETHYL-4-AMINOBIPHENYL, 13394-86-0, Dose [Inhibitor]: 0, 2 PPM IN BASAL DIET BEGINNING POST CARCINOGEN TREATMENT AND CONTINUING FOR 40 WK (STUDY DURATION: 60 WK), Species: RAT, Strain/Sex: F344/MALE, Target Tissue: Type of Lesion: PREPUTIAL GLAND: ADENOMA AND CARCINOMA, Dose [Carcinogen]: 50 MG/KG 1/2 WK FOR 20 WK TO RATS MAINTAINED ON ETHINYL ESTRADIOL CONTAINING DIET (0.75 PPM) FOR 1 WK CYCLED WITH ETHINY, Promoter: ETHINYL ESTRADIOL, 57-63-6) was 5/10 (50%), 6/11 (55%), -10%, not significant, the “tumour outcome (control, treated, inhibition, significance)” value (Carcinogen: 3,2'-DIMETHYL-4-AMINOBIPHENYL, 13394-86-0, Dose [Inhibitor]: 0, 2 PPM IN BASAL DIET BEGINNING POST CARCINOGEN TREATMENT AND CONTINUING FOR 40 WK (STUDY DURATION: 60 WK), Species: RAT, Strain/Sex: F344/MALE, Target Tissue: Type of Lesion: SMALL INTESTINE: ADENOMA AND ADENOCARCINOMA, Dose [Carcinogen]: 50 MG/KG 1/2 WK FOR 20 WK TO RATS MAINTAINED ON ETHINYL ESTRADIOL CONTAINING DIET (0.75 PPM) FOR 1 WK CYCLED WITH ETHINY, Promoter: ETHINYL ESTRADIOL, 57-63-6) was 2/10 (20%), 2/11 (18%), 10%, not significant and the “tumour outcome (control, treated, inhibition, significance)” value (Carcinogen: 3,2'-DIMETHYL-4-AMINOBIPHENYL, 13394-86-0, Dose [Inhibitor]: 0, 2 PPM IN BASAL DIET BEGINNING POST CARCINOGEN TREATMENT AND CONTINUING FOR 40 WK (STUDY DURATION: 60 WK), Species: RAT, Strain/Sex: F344/MALE, Target Tissue: Type of Lesion: SUBCUTIS: TUMOR, Dose [Carcinogen]: 50 MG/KG 1/2 WK FOR 20 WK TO RATS MAINTAINED ON ETHINYL ESTRADIOL CONTAINING DIET (0.75 PPM) FOR 1 WK CYCLED WITH ETHINY, Promoter: ETHINYL ESTRADIOL, 57-63-6) was 1/10 (10%), 0/11 (0%), 100%, not significant. The “tumour outcome (control, treated, inhibition, significance)” value (Carcinogen: 3,2'-DIMETHYL-4-AMINOBIPHENYL, 13394-86-0, Dose [Inhibitor]: 0, 2 PPM IN BASAL DIET BEGINNING POST CARCINOGEN TREATMENT AND CONTINUING FOR 40 WK (STUDY DURATION: 60 WK), Species: RAT, Strain/Sex: F344/MALE, Target Tissue: Type of Lesion: ZYMBAL GLAND: ADENOMA AND CARCINOMA, Dose [Carcinogen]: 50 MG/KG 1/2 WK FOR 20 WK TO RATS MAINTAINED ON ETHINYL ESTRADIOL CONTAINING DIET (0.75 PPM) FOR 1 WK CYCLED WITH ETHINY, Promoter: ETHINYL ESTRADIOL, 57-63-6) was 2/10 (20%), 2/11 (18%), 10%, not significant, the “tumour outcome (control, treated, inhibition, significance)” value (Carcinogen: 3,2-DIMETHYL-4-AMINOBIPHENYL, 13394-86-0, Dose [Inhibitor]: 0, 2 PPM IN BASAL DIET BEGINNING POST CARCINOGEN TREATMENT AND CONTINUING FOR 40 WK (STUDY DURATION: 60 WK), Species: RAT, Strain/Sex: F344/MALE, Target Tissue: Type of Lesion: PROSTATE: CARCINOMA, Dose [Carcinogen]: 50 MG/KG 1/2 WK FOR 20 WK TO RATS MAINTAINED ON ETHINYL ESTRADIOL CONTAINING DIET (0.75 PPM) FOR 1 WK CYCLED WITH ETHINY, Promoter: ETHINYL ESTRADIOL, 57-63-6) was 5/10 (50%), 4/11 (36%), 28%, not significant and the “tumour outcome (control, treated, inhibition, significance)” value (Carcinogen: DINITROSOPIPERAZINE, 140-79-4, Dose [Inhibitor]: 0, 2 UG/G DIET IN YEAST CONCURRENTLY WITH CARCINOGEN AND CONTINUED FOR STUDY DURATION (STUDY DURATION: 13.5 MO), Species: RAT, Strain/Sex: CD-1/MALE, FEMALE, Target Tissue: Type of Lesion: NASAL PHARYNX: CARCINOMA, Dose [Carcinogen]: 1.5 MG IN WATER 2/WK FOR 5 WK FOLLOWED BY 3 MG IN WATER 2/WK FOR 17.5 WK (TOTAL DOSE: 120 MG)) was 5/31(16%), 1/22(5%), 69%, p 0.025. The “tumour outcome (control, treated, inhibition, significance)” value (Carcinogen: NONE USED, Dose [Inhibitor]: 0.5 PPM IN DRINKING WATER DAILY FOR DURATION OF STUDY (STUDY DURATION: 2 YR), Species: MOUSE, Strain/Sex: C3H/FEMALE, Target Tissue: Type of Lesion: MAMMARY GLAND: ADENOCARCINOMA, Promoter: NONE USED) was 64%, 25%, 61%, p<0.01, the “tumour outcome (control, treated, inhibition, significance)” value (Carcinogen: NONE USED, Dose [Inhibitor]: 2 PPM IN A 10% BUTTER DIET DAILY FOR DURATION OF STUDY (STUDY DURATION: 2 YR), Species: MOUSE, Strain/Sex: C3H/FEMALE, Target Tissue: Type of Lesion: MAMMARY GLAND: ADENOCARCINOMA, Promoter: NONE USED) was 65%, 72%, -11%, not significant and the “tumour outcome (control, treated, inhibition, significance)” value (Carcinogen: NONE USED, Dose [Inhibitor]: 2 PPM IN A 10% CORN OIL DIET DAILY FOR DURATION OF STUDY (STUDY DURATION: 2 Y R), Species: MOUSE, Strain/Sex: C3H/FEMALE, Target Tissue: Type of Lesion: MAMMARY GLAND: ADENOCARCINOMA, Promoter: NONE USED) was 70%, 72%, -3%, not significant. For the same molecule, the “tumour outcome (control, treated, inhibition, significance)” value (Carcinogen: NONE USED, Dose [Inhibitor]: 2 PPM IN A 10% LARD DIET DAILY FOR DURATION OF STUDY (STUDY DURATION: 2 YR), Species: MOUSE, Strain/Sex: C3H/FEMALE, Target Tissue: Type of Lesion: MAMMARY GLAND: ADENOCARCINOMA, Promoter: NONE USED) was 53%, 52%, 2%, not significant, the “tumour outcome (control, treated, inhibition, significance)” value (Carcinogen: NONE USED, Dose [Inhibitor]: 2 PPM IN A 10% RAPE SEED OIL DIET DAILY FOR DURATION OF STUDY (STUDY DURATION : 2 YR), Species: MOUSE, Strain/Sex: C3H/FEMALE, Target Tissue: Type of Lesion: MAMMARY GLAND: ADENOCARCINOMA, Promoter: NONE USED) was 63%, 65%, -3%, not significant and the “tumour outcome (control, treated, inhibition, significance)” value (Carcinogen: NONE USED, Dose [Inhibitor]: 2 PPM IN DRINKING WATER DAILY FOR DURATION OF STUDY (STUDY DURATION: 2 YR), Species: MOUSE, Strain/Sex: C3H/FEMALE, Target Tissue: Type of Lesion: MAMMARY GLAND: ADENOCARCINOMA, Promoter: NONE USED) was 44%, 40%, 9%, not calculated and 64%, 25%, 61%, p<0.01.
